Results reported in the supplement of paper PMC4862054.

Tests used:
Experiment in all cases: normalised viability (% of control), CellTiter-Blue; higher = more viable cells (about 100 = DMSO control)
Conditions in all cases: incubation time: 72 h
BT-549 = tested on: BT-549
In short: (§1)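 After 72 h on compound-loaded 384-well plates, breast cancer cell lines received 2.5 µl CellTiter-Blue reagent for 2 h at 37 °C. Fluorescence at 560/590 nm was scaled per plate so that vehicle was 100 and a positive kill control was 0. The value stands for normalised viability at a single listed concentration of the series.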

BT-474 = tested on: BT-474
In short: as §1

SK-BR-3 = tested on: SK-BR-3
In short: as §1

Hs578T [1] = tested on: Hs578T
In short: as §1

HCC1143 = tested on: HCC1143
In short: as §1

MDA-MB-468 [2] = tested on: MDA-MB-468
In short: as §1

HCC1599 [3] = tested on: HCC1599
In short: as §1

CAL-148 [4] = tested on: CAL-148
In short: as §1

MDA-MB-453 = tested on: MDA-MB-453
In short: as §1

CAL-85-1 [5] = tested on: CAL-85-1
In short: as §1

HDQ-P1 [6] = tested on: HDQ-P1
In short: as §1

HCC1937 = tested on: HCC1937
In short: as §1

MFM-223 = tested on: MFM-223
In short: as §1

DU-4475 = tested on: DU-4475
In short: as §1

CAL-51 [7] = tested on: CAL-51
In short: as §1

CAL-120 [8] = tested on: CAL-120
In short: as §1

MDA-MB-231 = tested on: MDA-MB-231
In short: as §1

MDA-MB-436 [9] = tested on: MDA-MB-436
In short: as §1

Hs578T [10] = tested on: Hs578T; remark: listed apart in the source
In short: as §1

MDA-MB-468 [11] = tested on: MDA-MB-468; remark: listed apart in the source
In short: as §1

HCC1599 [12] = tested on: HCC1599; remark: listed apart in the source
In short: as §1

CAL-148 [13] = tested on: CAL-148; remark: listed apart in the source
In short: as §1

CAL-85-1 [14] = tested on: CAL-85-1; remark: listed apart in the source
In short: as §1

HDQ-P1 [15] = tested on: HDQ-P1; remark: listed apart in the source
In short: as §1

CAL-51 [16] = tested on: CAL-51; remark: listed apart in the source
In short: as §1

CAL-120 [17] = tested on: CAL-120; remark: listed apart in the source
In short: as §1

MDA-MB-436 [18] = tested on: MDA-MB-436; remark: listed apart in the source
In short: as §1

C[C@]12O[C@H](C[C@]1(O)CO)n1c3ccccc3c3c4c(c5c6ccccc6n2c5c31)CNC4=O [Lestaurtinib]
Conditions	normalised viability [%]
BT-474, 1 nM	120
BT-474, 100 nM	110
BT-474, 1000 nM	69
BT-549, 1 nM	88.3
BT-549, 100 nM	101
BT-549, 1000 nM	41.8
CAL-51 [7], 0.3 nM	113
CAL-51 [7], 3 nM	108
CAL-51 [7], 10 nM	106
CAL-51 [16], 1 nM	115
CAL-85-1 [5], 0.3 nM	106
CAL-85-1 [5], 3 nM	97.8
CAL-85-1 [5], 10 nM	102
CAL-85-1 [14], 1 nM	99.7
CAL-120 [8], 1 nM	108
CAL-120 [8], 100 nM	60.7
CAL-120 [8], 1000 nM	47.5
CAL-120 [17], 10 nM	103
CAL-148 [4], 0.3 nM	96.8
CAL-148 [4], 3 nM	98.6
CAL-148 [4], 10 nM	98.3
CAL-148 [13], 1 nM	101
DU-4475, 0.3 nM	93.2
DU-4475, 3 nM	104
DU-4475, 10 nM	100
HCC1143, 1 nM	107
HCC1143, 100 nM	89.8
HCC1143, 1000 nM	61.6
HCC1599 [3], 1 nM	102
HCC1599 [3], 100 nM	94.6
HCC1599 [3], 1000 nM	64.8
HCC1599 [12], 10 nM	102
HCC1937, 1 nM	89
HCC1937, 100 nM	77.4
HCC1937, 1000 nM	31.3
HDQ-P1 [6], 0.3 nM	119
HDQ-P1 [6], 3 nM	112
HDQ-P1 [6], 10 nM	126
HDQ-P1 [15], 1 nM	113
Hs578T [1], 1 nM	110
Hs578T [1], 100 nM	122
Hs578T [1], 1000 nM	63.3
Hs578T [10], 10 nM	83
MDA-MB-231, 1 nM	112
MDA-MB-231, 100 nM	104
MDA-MB-231, 1000 nM	62.6
MDA-MB-436 [9], 1 nM	102
MDA-MB-436 [9], 100 nM	93.4
MDA-MB-436 [9], 1000 nM	55.5
MDA-MB-436 [18], 10 nM	103
MDA-MB-453, 0.3 nM	126
MDA-MB-453, 3 nM	98.4
MDA-MB-453, 10 nM	104
MDA-MB-468 [2], 1 nM	107
MDA-MB-468 [2], 100 nM	106
MDA-MB-468 [2], 1000 nM	51
MDA-MB-468 [11], 10 nM	92.9
MFM-223, 1 nM	97.6
MFM-223, 100 nM	80.9
MFM-223, 1000 nM	42.8
SK-BR-3, 1 nM	108
SK-BR-3, 100 nM	102
SK-BR-3, 1000 nM	37.2

CO[C@@H](C(=O)N1Cc2[nH]nc(NC(=O)c3ccc(N4CCN(C)CC4)cc3)c2C1)c1ccccc1 [Danusertib]
Conditions	normalised viability [%]
BT-474, 10 nM	105
BT-474, 1000 nM	88.3
BT-474, 10000 nM	96.5
BT-549, 10 nM	97.9
BT-549, 1000 nM	64.3
BT-549, 10000 nM	16.2
CAL-51 [7], 3 nM	116
CAL-51 [7], 30 nM	116
CAL-51 [7], 100 nM	74.3
CAL-51 [16], 10 nM	105
CAL-85-1 [5], 3 nM	85.8
CAL-85-1 [5], 30 nM	82.8
CAL-85-1 [5], 100 nM	76.2
CAL-85-1 [14], 10 nM	93.6
CAL-120 [8], 10 nM	80.7
CAL-120 [8], 1000 nM	46
CAL-120 [8], 10000 nM	8.24
CAL-120 [17], 100 nM	64.8
CAL-148 [4], 3 nM	92.5
CAL-148 [4], 30 nM	85.5
CAL-148 [4], 100 nM	29.7
CAL-148 [13], 10 nM	79.9
DU-4475, 3 nM	89.8
DU-4475, 30 nM	88.2
DU-4475, 100 nM	70.6
HCC1143, 10 nM	78.2
HCC1143, 1000 nM	61.8
HCC1143, 10000 nM	31.3
HCC1599 [3], 10 nM	98.4
HCC1599 [3], 1000 nM	74.7
HCC1599 [3], 10000 nM	73.1
HCC1599 [12], 100 nM	77.2
HCC1937, 10 nM	99.8
HCC1937, 1000 nM	41.7
HCC1937, 10000 nM	41
HDQ-P1 [6], 3 nM	89.9
HDQ-P1 [6], 30 nM	90.7
HDQ-P1 [6], 100 nM	72.4
HDQ-P1 [15], 10 nM	104
Hs578T [1], 10 nM	95.4
Hs578T [1], 1000 nM	59.3
Hs578T [1], 10000 nM	23.9
Hs578T [10], 100 nM	67.1
MDA-MB-231, 10 nM	87.9
MDA-MB-231, 1000 nM	56.7
MDA-MB-231, 10000 nM	19.2
MDA-MB-436 [9], 10 nM	89.7
MDA-MB-436 [9], 1000 nM	72
MDA-MB-436 [9], 10000 nM	60.9
MDA-MB-436 [18], 100 nM	95.1
MDA-MB-453, 3 nM	101
MDA-MB-453, 30 nM	62.1
MDA-MB-453, 100 nM	47.9
MDA-MB-468 [2], 10 nM	107
MDA-MB-468 [2], 1000 nM	36.2
MDA-MB-468 [2], 10000 nM	48.1
MDA-MB-468 [11], 100 nM	59.4
MFM-223, 10 nM	71.3
MFM-223, 1000 nM	36.9
MFM-223, 10000 nM	55.4
SK-BR-3, 10 nM	81
SK-BR-3, 1000 nM	73.5
SK-BR-3, 10000 nM	77

CCC/C=C/C=C/C(=O)O[C@H]1/C(=C/C(=O)OC)C[C@H]2C[C@H]([C@@H](C)O)OC(=O)C[C@H](O)C[C@@H]3C[C@H](OC(C)=O)C(C)(C)[C@](O)(C[C@@H]4C/C(=C/C(=O)OC)C[C@H](/C=C/C(C)(C)[C@]1(O)O2)O4)O3 [Bryostatin 1]
Conditions	normalised viability [%]
BT-474, 10 nM	109
BT-474, 1000 nM	109
BT-474, 10000 nM	102
BT-549, 0.1 nM	100
BT-549, 10 nM	87.9
BT-549, 100 nM	100
CAL-51 [7], 0.03 nM	108
CAL-51 [7], 0.3 nM	104
CAL-51 [7], 1 nM	108
CAL-51 [16], 0.1 nM	102
CAL-85-1 [5], 0.03 nM	95.3
CAL-85-1 [5], 0.3 nM	107
CAL-85-1 [5], 1 nM	117
CAL-85-1 [14], 0.1 nM	124
CAL-120 [8], 0.1 nM	90.7
CAL-120 [8], 10 nM	89.1
CAL-120 [8], 100 nM	93.4
CAL-120 [17], 1 nM	85.4
CAL-148 [4], 0.03 nM	91.6
CAL-148 [4], 0.3 nM	101
CAL-148 [4], 1 nM	88
CAL-148 [13], 0.1 nM	90.7
DU-4475, 0.03 nM	92.7
DU-4475, 0.3 nM	79.2
DU-4475, 1 nM	91.2
HCC1143, 0.1 nM	85.3
HCC1143, 10 nM	80.5
HCC1143, 100 nM	80.5
HCC1599 [3], 0.1 nM	112
HCC1599 [3], 10 nM	116
HCC1599 [3], 100 nM	115
HCC1599 [12], 1 nM	110
HCC1937, 10 nM	108
HCC1937, 1000 nM	80.2
HCC1937, 10000 nM	103
HDQ-P1 [6], 0.03 nM	104
HDQ-P1 [6], 0.3 nM	106
HDQ-P1 [6], 1 nM	107
HDQ-P1 [15], 0.1 nM	106
Hs578T [1], 0.1 nM	95.1
Hs578T [1], 10 nM	97
Hs578T [1], 100 nM	106
Hs578T [10], 1 nM	63
MDA-MB-231, 10 nM	101
MDA-MB-231, 1000 nM	82.8
MDA-MB-231, 10000 nM	90.2
MDA-MB-436 [9], 0.1 nM	110
MDA-MB-436 [9], 10 nM	103
MDA-MB-436 [9], 100 nM	127
MDA-MB-436 [18], 1 nM	126
MDA-MB-453, 0.03 nM	105
MDA-MB-453, 0.3 nM	95
MDA-MB-453, 1 nM	94.8
MDA-MB-468 [2], 10 nM	99.6
MDA-MB-468 [2], 1000 nM	104
MDA-MB-468 [2], 10000 nM	94.4
MDA-MB-468 [11], 100 nM	101
MFM-223, 0.1 nM	97
MFM-223, 10 nM	91.2
MFM-223, 100 nM	94.6
SK-BR-3, 10 nM	95
SK-BR-3, 1000 nM	67
SK-BR-3, 10000 nM	61.4
